“Also recorded” adds a separate entry of the source.
Legend:
[1] = tested on: HIV strains resistant to abacavir; conditions: cited from earlier work
[2] = tested on: HIV with multi-nucleoside resistance complex (A62V, V75I, F77L, Y116F and Q115M); conditions: cited from earlier work
[3] = tested on: patient RTV-621, RTV-285, RTV-690, RTV-770 and RTV-771 (T69SSA, T69SSG, T69SSS); assay: Phenotypic susceptibility assay, patient isolates with T69SSX mutations/insertions; assay type: cell-based, HIV-1; conditions: for susceptibility compared to wild-type control RTV: patient samples with insertions at 69
Description: In these experiments patient-derived segment(s) corresponding to the HIV protease and reverse transcriptase coding regions were either patient-derived segments amplified by the reverse transcription-polymerase chain reaction method (RT-PCR) using viral RNA isolated from viral particles present in the serum of HIV-infected individuals or were mutants of wild type HIV-1 made by site directed mutagenesis of a parental clone of resistance test vector DNA. Isolation of viral RNA was performed using standard procedures (e.g. RNAgents Total RNA Isolation System, Promega, Madison Wis. or RNAzol, Tel-Test, Friendswood, Tex.). The RT-PCR protocol was divided into two steps. A retroviral reverse transcriptase [e.g. Moloney MuLV reverse transcriptase (Roche Molecular Systems, Inc., Branchburg, N.J.), or avian myeloblastosis virus (AMV) reverse transcriptase, (Boehringer Mannheim, Indianapolis, Ind.)] was used to copy viral RNA into cDNA. The cDNA was then amplified using a thermostable DNA polymerase [e.g. Taq (Roche Molecular Systems, Inc., Branchburg, N.J.), Tth (Roche Molecular Systems, Inc., Branchburg, N.J.), PrimeZyme (isolated from Thermus brockianus, Biometra, Gottingen, Germany)] or a combination of thermostable polymerases as described for the performance of “long PCR” (Barnes, W. M., (1994) Proc. Natl. Acad. Sci, USA 91, 2216-2220) [e.g. Expand High Fidelity PCR System (Taq+Pwo), (Boehringer Mannheim. Indianapolis, Ind.) OR GeneAmp XL PCR kit (Tth+Vent), (Roche Molecular Systems, Inc., Branchburg, N.J.)].
Resistance test vectors incorporating the “test” patient-derived segments were constructed as described in PCT International Application No. PCT/US97/01609, filed Jan. 29, 1997 using an amplified DNA product of 1.5 kB prepared by RT-PCR using viral RNA as a template and oligonucleotides PDSApa (1) and PDSAge (2) as primers, followed by digestion with ApaI and AgeI or the isoschizimer PINAI. To ensure that the plasmid DNA corresponding to the resultant resistance test vector comprises a representative sample of the HIV viral quasi-species present in the serum of a given patient, many (>100) independent E. coli transformants obtained in the construction of a given resistance test vector were pooled and used for the preparation of plasmid DNA.
Resistance tests were carried out with resistance test vectors using two host cell types. Resistance test vector viral particles were produced by a first host cell (the resistance test vector host cell) that was prepared by transfecting a packaging host cell with the resistance test vector and the packaging expression vector. The resistance test vector viral particles were then used to infect a second host cell (the target host cell) in which the expression of the indicator gene is measured.
The resistance test vectors containing a functional luciferase gene cassette were constructed and host cells were transfected with the resistance test vector DNA. The resistant test vectors contained patient-derived reverse transcriptase and protease sequences that were either susceptible or resistant to the antiretroviral agents, such as nucleoside reverse transcriptase inhibitors, non-nucleoside reverse transcriptase inhibitors and protease inhibitors. The resistance test vector viral particles produced by transfecting the resistance test vector DNA into host cells, either in the presence or absence of protease inhibitors, were used to infect target host cells grown either in the absence of NRTI or NNRTI or In the presence of increasing concentrations of the drug. The amount of luciferase activIty produced in infected target host cells in the presence of drug was compared to the amount of luciferase produced in infected target host cells in the absence of drug. Drug resistance was measured as the amount of drug required to inhibit by 50% the luciferase activity detected in the absence of drug (Inhibitory concentration 50%, IC50). […]

[4] = tested on: HIV with RT Lys65→Arg mutation; conditions: Lys65→Arg (K65R); cited from earlier work

SMILES | cross resistance of abacavir-resistant strains [1] | cross-resistance of isolates with substitutions at codons 62, 75, 77, 116 and 115 ([2]; patients on prolonged ZDV plus ddI or ddC) | fold reduced susceptibility ([3]; four patient viruses with T69SSX mutations/insertions (FIG. 5)) | susceptibility compared to wild-type control RTV [3] | fold increase in IC50 / reduction in susceptibility [4] | fold resistance ([1]; multiple mutations (at least three)) [fold] | fold reduction in susceptibility ([2]; A62V, V75I, F77L, Y116F and Q115M) [fold]
Cc1cn([C@H]2C=C[C@@H](CO)O2)c(=O)[nH]c1=O [d4T, stavudine] | not to d4T or ZDV | cross-resistance | 2-10 fold | decrease in susceptibility to d4T; also recorded: significant reduction in d4T susceptibility; also recorded: decreased susceptibility |  |  | 
Nc1ccn([C@H]2CC[C@@H](CO)O2)c(=O)n1 [ddC, zalcitabine] | Cross resistance |  |  | decreased susceptibility | five-fold to ten-fold |  | 
Cc1cn([C@H]2C[C@H](N=[N+]=[N-])[C@@H](CO)O2)c(=O)[nH]c1=O [AZT, zidovudine] | not to d4T or ZDV |  |  | decreased susceptibility |  |  | 
Nc1nc(NC2CC2)c2ncn([C@H]3C=C[C@@H](CO)C3)c2n1 [ABC, abacavir] |  |  |  | decreased susceptibility |  | 10 | 17
O=c1[nH]cnc2c1ncn2[C@H]1CC[C@@H](CO)O1 [ddI, didanosine] | Cross resistance |  |  | decreased susceptibility | three-fold to five-fold |  | 

Source: patent publication US6489098B1, “Means and methods for monitoring nucleoside reverse transcriptase inhibitor antiretroviral therapy and guiding therapeutic decisions in the treatment of HIV/AIDS” (ViroLogic, Inc., priority 1998, dated 2002)
